Laboratory results reported in the NIST ThermoML archive (doi:10.1016/j.jct.2016.07.008).
± gives the expanded uncertainty stated by the source.

Conditions: Liquid

CCCCO [butan-1-ol]
viscosity [mPa·s]
Conditions	293.15 K	298.15 K	313.15 K	323.15 K	333.15 K	348.15 K	353.15 K
100 kPa, Concentric cylinders viscometry	2.959 ± 0.033	–	1.794 ± 0.02	–	1.154 ± 0.014	–	0.7837 ± 0.0099
100 kPa, Vibrating wire viscometry	2.969 ± 0.047	2.601 ± 0.042	1.797 ± 0.029	1.429 ± 0.023	1.156 ± 0.019	0.8579 ± 0.015	0.7903 ± 0.014
1000 kPa, Vibrating wire viscometry	3.001 ± 0.048	2.622 ± 0.042	1.813 ± 0.029	1.44 ± 0.024	1.172 ± 0.019	0.8647 ± 0.015	0.7943 ± 0.014
5000 kPa, Vibrating wire viscometry	3.108 ± 0.049	2.715 ± 0.043	1.89 ± 0.03	1.491 ± 0.024	1.227 ± 0.02	0.8956 ± 0.015	0.8284 ± 0.014
10000 kPa, Vibrating wire viscometry	3.244 ± 0.052	2.834 ± 0.045	1.967 ± 0.032	1.556 ± 0.025	1.29 ± 0.021	0.9349 ± 0.016	0.8637 ± 0.015
20000 kPa, Vibrating wire viscometry	3.479 ± 0.055	3.079 ± 0.049	2.14 ± 0.034	1.69 ± 0.027	1.389 ± 0.023	1.016 ± 0.017	0.9473 ± 0.016
30000 kPa, Vibrating wire viscometry	3.788 ± 0.06	3.333 ± 0.053	2.319 ± 0.037	1.829 ± 0.03	1.504 ± 0.025	1.101 ± 0.018	1.04 ± 0.017
40000 kPa, Vibrating wire viscometry	4.078 ± 0.065	3.599 ± 0.057	2.48 ± 0.04	1.975 ± 0.032	1.624 ± 0.026	1.189 ± 0.02	1.102 ± 0.018
50000 kPa, Vibrating wire viscometry	4.401 ± 0.07	3.874 ± 0.061	2.629 ± 0.042	2.125 ± 0.034	1.741 ± 0.028	1.28 ± 0.021	1.21 ± 0.02
60000 kPa, Vibrating wire viscometry	4.74 ± 0.075	4.16 ± 0.066	2.852 ± 0.045	2.281 ± 0.037	1.867 ± 0.03	1.375 ± 0.023	1.295 ± 0.021
70000 kPa, Vibrating wire viscometry	5.076 ± 0.08	4.455 ± 0.071	3.089 ± 0.049	2.443 ± 0.039	2.014 ± 0.032	1.473 ± 0.024	1.384 ± 0.023
80000 kPa, Vibrating wire viscometry	5.438 ± 0.086	4.761 ± 0.075	3.247 ± 0.052	2.61 ± 0.042	2.137 ± 0.034	1.575 ± 0.026	1.473 ± 0.024
100000 kPa, Vibrating wire viscometry	6.164 ± 0.097	5.404 ± 0.085	3.686 ± 0.058	2.962 ± 0.047	2.384 ± 0.038	1.788 ± 0.029	1.676 ± 0.027
120000 kPa, Vibrating wire viscometry	6.979 ± 0.11	6.087 ± 0.096	4.192 ± 0.066	3.335 ± 0.053	2.633 ± 0.042	2.015 ± 0.032	1.857 ± 0.03
140000 kPa, Vibrating wire viscometry	7.843 ± 0.12	6.811 ± 0.11	4.638 ± 0.073	3.682 ± 0.058	2.883 ± 0.046	2.255 ± 0.036	2.037 ± 0.033
